In ChEMBL document CHEMBL5120871, “Identification of benzamides derivatives of norfloxacin as promising microRNA-21 inhibitors via repressing its transcription” (Bioorg Med Chem, 2022):
pEC50, pIC50: −log10 of the molar value. Active and inactive are the calls of the source. The calls are words filed in the database; no cut-off is given here.

Legend:
microRNA 21 [1] = assay: Inhibition of wild type full length miR-21 in human HeLa cells co-expressing firefly luciferase and renilla luciferase gene assessed as fold change in Luc/Rlu by measuring relative […] intensity at 20 uM by Dual-Luciferase reporter based luminometer analysis; type: cell-based
HeLa [2] = assay: Antiproliferative activity against human HeLa cells incubated for 24 hrs by CCK-8 assay; type: functional, cell-based
microRNA 21 [3] = assay: Inhibition of miR-21 in human HeLa cells assessed as reduction in mature miR-21 level at 10 to 20 uM measured after 48 hrs by RT-qPCR analysis relative to control; type: cell-based; conditions: dose 10-20 µM
HeLa [4] = assay: Inhibition of cell migration in human HeLa cells at 10 to 20 uM and measured after 24 hrs by crystal violet staining based transwell migration assay; type: functional; conditions: dose 10-20 µM
microRNA 21 [5] = assay: Inhibition of miR-21 in human HeLa cells assessed as upregulation of SLIT2 level at 10 uM incubated for 48 hrs by RT-qPCR analysis; type: cell-based
microRNA 21 [6] = assay: Inhibition of miR-21 in human HeLa cells assessed as downregulation of pri-miR-21 level at 10 uM and measured for 24 to 48 hrs by RT-qPCR analysis; type: cell-based; conditions: time 24-48 hrs
HeLa [7] = assay: Induction of apoptosis in human HeLa cells assessed as necrotic cells at 20 uM incubated for 24 hrs by annexin V-FITC and propidium iodide staining based flow cytometry (reference value: 0.08%); type: functional
HeLa [8] = assay: Induction of apoptosis in human HeLa cells assessed as early apoptotic cells at 10 uM incubated for 24 hrs by annexin V-FITC and propidium iodide staining based flow cytometry (reference value: 4.35%); type: functional
[9] = Cytotoxicity against human BEAS-2B cells assessed as reduction in cell proliferation incubated for 24 hrs by CCK-8 assay; type: toxicity, cell-based
HeLa [10] = assay: Induction of apoptosis in human HeLa cells assessed as late apoptotic cells at 20 uM incubated for 24 hrs by annexin V-FITC and propidium iodide staining based flow cytometry (reference value: 2.03%); type: functional
HCT-116 [11] = assay: Inhibition of colony formation in human HCT-116 cells incubated for 14 days by crystal violet staining based assay; type: functional, cell-based; conditions: dose 0.1-10 µM, time 14.0 day, DDE = dose-dependent effect
microRNA 21 [12] = assay: Inhibition of miR-21 in human HeLa cells assessed as reduction in mature miR-21 level at 10 to 20 uM measured after 24 hrs by RT-qPCR analysis; type: cell-based; conditions: dose 10-20 µM
HeLa [13] = assay: Induction of apoptosis in human HeLa cells assessed as early apoptotic cells at 20 uM incubated for 24 hrs by annexin V-FITC and propidium iodide staining based flow cytometry (reference value: 4.35%); type: functional
HCT-116 [14] = assay: Antiproliferative activity against human HCT-116 cells incubated for 24 hrs by CCK-8 assay; type: functional, cell-based; conditions: HCT-116, 24 h
HeLa [15] = assay: Induction of apoptosis in human HeLa cells assessed as viable cells at 10 uM incubated for 24 hrs by annexin V-FITC and propidium iodide staining based flow cytometry (reference value: 93.54%); type: functional; conditions: read-out: Activity
HeLa [16] = assay: Inhibition of colony formation in human HeLa cells incubated for 14 days by crystal violet staining based assay; type: functional, cell-based; conditions: dose 0.1-10 µM, time 14.0 day, DDE = dose-dependent effect
HeLa [17] = assay: Induction of apoptosis in human HeLa cells assessed as necrotic cells at 10 uM incubated for 24 hrs by annexin V-FITC and propidium iodide staining based flow cytometry (reference value: 0.08%); type: functional
microRNA 21 [18] = assay: Inhibition of wild type full length miR-21 in human HeLa cells co-expressing firefly luciferase and renilla luciferase gene assessed as fold change in Luc/Rlu by measuring relative […] intensity at 10 uM by Dual-Luciferase reporter based luminometer analysis; type: cell-based
microRNA 21 [19] = assay: Inhibition of miR-21 in human HeLa cells assessed as downregulation of pre-miR-21 level at 10 uM and measured for 24 to 48 hrs by RT-qPCR analysis; type: cell-based; conditions: time 24-48 hrs
HeLa [20] = assay: Induction of apoptosis in human HeLa cells assessed as viable cells at 20 uM incubated for 24 hrs by annexin V-FITC and propidium iodide staining based flow cytometry (reference value: 93.54%); type: functional; conditions: read-out: Activity
microRNA 21 [21] = assay: Inhibition of miR-21 in human HeLa cells assessed as upregulation of EGR1 level at 10 uM incubated for 48 hrs by RT-qPCR analysis; type: cell-based
microRNA 21 [22] = assay: Inhibition of miR-21 in human HeLa cells assessed as increase in PTEN level at 10 to 20 uM incubated for 48 hrs by RT-qPCR analysis; type: cell-based; conditions: dose 10-20 µM
HeLa [23] = assay: Induction of apoptosis in human HeLa cells assessed as late apoptotic cells at 10 uM incubated for 24 hrs by annexin V-FITC and propidium iodide staining based flow cytometry (reference value: 2.03%); type: functional
microRNA 21 [24] = assay: Inhibition of miR-21 in human HeLa cells assessed as downregulation of ATF4 level at 10 uM incubated for 48 hrs by RT-qPCR analysis; type: cell-based
microRNA 21 [25] = assay: Inhibition of miR-21 in human HeLa cells assessed as downregulation of ZNF251 level at 10 uM incubated for 48 hrs by RT-qPCR analysis; type: cell-based
microRNA 21 [26] = assay: Inhibition of miR-21 maturation in human MCF7 cells assessed as reduction in pre-miR-21 expression at 5 uM incubated for 48 hrs by RT-PCR analysis relative to control; type: cell-based
microRNA 21 [27] = assay: Inhibition of miR-21 in human HeLa cells assessed as increase in luciferase activity measured after 48 hrs by bright Glo-luciferase reporter gene assay; type: cell-based
microRNA 21 [28] = assay: Inhibition of miR-21 (unknown origin) maturation assessed as cleavage of pre-miR-21 at 5 uM by RT-qPCR analysis relative to control; type: nucleic-acid assay; conditions: Homo sapiens
microRNA 21 [29] = assay: Inhibition of miR-21 maturation in human MCF7 cells assessed as reduction in pre-miR-21 expression at 30 uM measured upto 24 hrs by RT-PCR analysis relative to control; type: cell-based
microRNA 21 [30] = assay: Inhibition of miR-21 maturation in human U87 cells assessed as reduction in pre-miR-21 expression at 30 uM measured upto 24 hrs by RT-PCR analysis relative to control; type: cell-based
microRNA 21 [31] = assay: Inhibition of miR-21 maturation in human LN-229 cells assessed as reduction in pre-miR-21 expression at 30 uM measured upto 24 hrs by RT-PCR analysis relative to control; type: cell-based
microRNA 21 [32] = assay: Inhibition of miR-21 maturation in human SGC-7901 cells assessed as reduction in pre-miR-21 expression at 30 uM measured upto 24 hrs by RT-PCR analysis relative to control; type: cell-based

CCn1cc(C(=O)NCCN2CCCCC2)c(=O)c2cc(F)c(N3CCNCC3)cc21
fold change (FC) (microRNA 21 [1]): 0.91

CCn1cc(C(=O)Nc2ccc(C(=O)NC(C)C)cc2)c(=O)c2cc(F)c(N3CCNCC3)cc21
fold change (FC) (microRNA 21 [1]): 1.8
pIC50 (HeLa [2]): < 4.00

CCN(CC)CCNC(=O)c1ccc(NC(=O)c2cn(CC)c3cc(N4CCNCC4)c(F)cc3c2=O)cc1
fold change (FC) (microRNA 21 [1]): 1.36

CCCCNC(=O)c1ccc(NC(=O)c2cn(CC)c3cc(N4CCNCC4)c(F)cc3c2=O)cc1
fold change (FC) (microRNA 21 [1]): 0.98

C#CCNC(=O)c1cn(CC)c2cc(N3CCN(Cc4ccccc4)CC3)c(F)cc2c1=O
fold change (FC) (microRNA 21 [1]): 1

CCn1cc(C(=O)Nc2ccc(C(=O)NCCN3CCCCC3)cc2)c(=O)c2cc(F)c(N3CCNCC3)cc21
inhibition (microRNA 21 [3]): Active
Activity (HeLa [4]): Active
inhibition (microRNA 21 [5]): Active
inhibition (microRNA 21 [6]): Active
Activity (HeLa [7]): 0.58%
Activity (HeLa [8]): 5.74%
IC50 at 24 h [9]: > 100 µM
Activity (HeLa [10]): 4.18%
inhibition (HCT-116 [11]): Dde
inhibition (microRNA 21 [12]): Active
Activity (HeLa [13]): 10.67%
pIC50 (HCT-116 [14]): 5.55
viability at 10 µM (HeLa [15]): 91.8%
inhibition (HeLa [16]): Dde
Activity (HeLa [17]): 0.24%
fold change (FC) (microRNA 21 [18]): 1.42
fold change (FC) (microRNA 21 [1]): 2.01
inhibition (microRNA 21 [19]): Active
viability at 20 µM (HeLa [20]): 84.6%
inhibition (microRNA 21 [21]): Active
inhibition (microRNA 21 [22]): Active
Activity (HeLa [23]): 2.23%
inhibition (microRNA 21 [24]): Active
pIC50 (HeLa [2]): 5.26
inhibition (microRNA 21 [25]): Active

CC[C@@]1(O)C(=O)OCc2c1cc1n(c2=O)Cc2cc3cc(O)ccc3nc2-1 [HYDROXYCAMPTOTHECIN]
pIC50 (HCT-116 [14]): 7.30
pIC50 (HeLa [2]): 7.22

CN[C@@H]1[C@H](O[C@H]2[C@H](O[C@H]3[C@H](O)[C@@H](O)[C@H](N=C(N)N)[C@@H](O)[C@@H]3N=C(N)N)O[C@@H](C)[C@]2(O)C=O)O[C@@H](CO)[C@H](O)[C@H]1O
inhibition (microRNA 21 [26]): 80%
fold change (FC) (microRNA 21 [1]): 1.1

C#CCNC(=O)c1ccc(/N=N/c2ccccc2)cc1
pEC50 (microRNA 21 [27]): 5.70
fold change (FC) (microRNA 21 [1]): 1.41

CCn1cc(C(=O)Nc2ccc(F)cc2)c(=O)c2cc(F)c(N3CCN(Cc4ccccc4)CC3)cc21
pIC50 (HCT-116 [14]): < 4.00
fold change (FC) (microRNA 21 [1]): 1.63
pIC50 (HeLa [2]): < 4.00

CCn1cc(C(=O)Nc2ccc(C(=O)NCC(C)C)cc2)c(=O)c2cc(F)c(N3CCNCC3)cc21
fold change (FC) (microRNA 21 [1]): 1.92
pIC50 (HeLa [2]): 4.88

C#CCNC(=O)c1ccc(NC(=O)c2cn(CC)c3cc(N4CCN(CC5CC5)CC4)c(F)cc3c2=O)cc1
fold change (FC) (microRNA 21 [1]): 1.07

C#CCNC(=O)c1ccc(NC(=O)c2cn(CC)c3cc(N4CCN(Cc5ccccc5)CC4)c(F)cc3c2=O)cc1
fold change (FC) (microRNA 21 [1]): 1.47

C#CCNC(=O)c1ccc(NC(=O)c2cn(CC)c3cc(N4CCN(C(=O)CC56CC7CC(CC(C7)C5)C6)CC4)c(F)cc3c2=O)cc1
fold change (FC) (microRNA 21 [1]): 0.98

CCn1cc(C(=O)O)c(=O)c2cc(F)c(N3CCNCC3)cc21
fold change (FC) (microRNA 21 [1]): 1.08

NC[C@H]1O[C@H](O[C@H]2[C@H](O[C@@H]3O[C@H](CSCCNC(=O)CCCCCn4cc(COCCOc5ccc6c(c5)C(=O)N(O)C(=O)C6)nn4)[C@@H](O[C@H]4O[C@H](CN)[C@@H](O)[C@H](O)[C@H]4N)[C@H]3O)[C@@H](O)[C@H](N)C[C@@H]2N)[C@H](N)[C@@H](O)[C@@H]1O
inhibition (microRNA 21 [28]): 90%

CCn1cc(C(=O)Nc2ccc(C(=O)NC3CCOCC3)cc2)c(=O)c2cc(F)c(N3CCNCC3)cc21
fold change (FC) (microRNA 21 [1]): 0.69

CCn1cc(C(=O)Nc2ccccc2)c(=O)c2cc(F)c(N3CCN(Cc4ccccc4)CC3)cc21
fold change (FC) (microRNA 21 [1]): 1.24

C#CCNC(=O)c1ccc(NC(=O)c2cn(CC)c3cc(N4CCNCC4)c(F)cc3c2=O)cc1
fold change (FC) (microRNA 21 [1]): 1.15

CCn1cc(C(=O)Nc2ccc(C(=O)NCC3CC3)cc2)c(=O)c2cc(F)c(N3CCNCC3)cc21
fold change (FC) (microRNA 21 [1]): 0.72

N#CC1CNC(N)NC1N (centres undefined)
inhibition (microRNA 21 [29]): 50%
inhibition (microRNA 21 [30]): 50%
inhibition (microRNA 21 [31]): 50%
inhibition (microRNA 21 [32]): 50%

C#CCNC(=O)c1ccc(NC(=O)c2ccccc2Br)cc1
fold change (FC) (microRNA 21 [1]): 1.64

CCn1cc(C(=O)N2CCCCC2)c(=O)c2cc(F)c(N3CCN(Cc4ccccc4)CC3)cc21
fold change (FC) (microRNA 21 [1]): 1.12

CCn1cc(C(=O)NC2CCN(Cc3ccccc3)CC2)c(=O)c2cc(F)c(N3CCNCC3)cc21
fold change (FC) (microRNA 21 [1]): 1.09

CCn1cc(C(=O)NCCN2CCOCC2)c(=O)c2cc(F)c(N3CCNCC3)cc21
fold change (FC) (microRNA 21 [1]): 0.57
